Tests used:
[1] = Approximate solubility of Form I and Form II in various solvents; assay type: physicochemical
Excerpt: In addition, the lower melting point polymorph, Form II, also has significant advantages over the polymorphic mixture of Compound 1 as prepared according to known techniques. […] Form II is generally more soluble in polar and protic solvents than is Form I. Enhanced solubility of a compound will generally increase the bioavailability of that compound. When absorption of a drug is dissolution rate limited, use of the more soluble and faster dissolving form improves the rate and extent of bioavailability.

[2] = Physical (polymorphic) stability of the solid form; assay type: physicochemical; conditions: stability toward conversion to a different polymorphic form; compared with the polymorphic mixture of Compound 1
Excerpt: The polymorph Form I is considered a heat stable form of Compound 1. By “heat stable” or “physically stable” is meant that the Form I is stable toward conversion to the polymorph Form II; although, it may be labile toward degradation to other compounds.
As the higher melting point polymorph, Form I has significant advantages over the polymorphic mixture of Compound 1 prepared according to known techniques. […] This, in turn, enhances the milling and compaction properties of the drug substance.

| Substance | Solubility ([1]; Acetone) [µg/mL] | Solubility ([1]; Acetonitrile) [µg/mL] | Solubility ([1]; De-ionized water) [µg/mL] | Solubility ([1]; Diethyl ether) [µg/mL] | Solubility ([1]; Ethanol, absolute (100%)) [µg/mL] | Solubility ([1]; Ethyl acetate) [µg/mL] | Solubility ([1]; Hexane) [µg/mL] | Solubility ([1]; Isopropanol) [µg/mL] | Solubility ([1]; Methanol) [µg/mL] | Solubility ([1]; Polyethylene Glycol 400, NF) [µg/mL] | Solubility ([1]; Tetrahydrofuran) [µg/mL] | Solubility ([1]; Toluene) [µg/mL] | Water solubility, in words ([1]; compared with Form I) | Physical stability, in words [2] |
| --- | --- | --- | --- | --- | --- | --- | --- | --- | --- | --- | --- | --- | --- | --- |
| N-methyl-N-(3-{3-[2-thienylcarbonyl]-pyrazol-[1,5-α]-pyrimidin-7-yl}phenyl)acetamide [Form II] | 6873 | 8928 | 18.8 | 51 | 1722 | 2160 | 50 | 457 | 1915 | 10100 | 14740 | 645 | superior water solubility over Form I |  |
| N-methyl-N-(3-{3-[2-thienylcarbonyl]-pyrazol-[1,5-α]-pyrimidin-7-yl}phenyl)acetamide [Form I] | 4842 | 6246 | 8.3 | 80 | 1426 | 1600 | 41 | 441 | 1740 | 3259 | 9964 | 997 |  | superior physical stability |

Source: patent US6958342B2, “Polymorphs of N-methyl-N-(3-{3-[2-thienylcarbonyl]-pyrazol-[1,5-α]-pyrimidin-7-yl}phenyl)acetamide and compositions and methods related thereto” (Neurocrine Biosciences, Inc., priority 1999, dated 2005)
